Numbers after ± are expanded uncertainties.
Legend:
[1] = 101.33 kPa, Liquid
[2] = wn = mass fraction of the nth substance listed; settings: 101 kPa, Liquid, w1 = 0.5
[3] = activity coefficient (dimensionless); of the first substance listed, at infinite dilution; xn = mol fraction of the nth substance listed; settings: Liquid, x1 = 0

CCCCCCCCn1cc[n+](C)c1.O=S(=O)([N-]S(=O)(=O)C(F)(F)F)C(F)(F)F
mass density ([1]; 298.15 K): 1325 ± 5 kg/m3
mass density ([1]; 303.15 K): 1320 ± 5 kg/m3
mass density ([1]; 308.15 K): 1316 ± 5 kg/m3
mass density ([1]; 313.15 K): 1311 ± 5 kg/m3
mass density ([1]; 318.15 K): 1307 ± 5 kg/m3
mass density ([1]; 323.15 K): 1303 ± 5 kg/m3
mass density ([1]; 328.15 K): 1298 ± 5 kg/m3
mass density ([1]; 333.15 K): 1294 ± 5 kg/m3
mass density ([1]; 338.15 K): 1289 ± 5 kg/m3
mass density ([1]; 343.15 K): 1285 ± 5 kg/m3

CCCCCC[n+]1ccn(C)c1.O=S(=O)([N-]S(=O)(=O)C(F)(F)F)C(F)(F)F
mass density ([1]; 293.15 K): 1374 ± 5 kg/m3
mass density ([1]; 298.15 K): 1370 ± 5 kg/m3
mass density ([1]; 303.15 K): 1365 ± 5 kg/m3
mass density ([1]; 308.15 K): 1361 ± 5 kg/m3
mass density ([1]; 313.15 K): 1356 ± 5 kg/m3
mass density ([1]; 318.15 K): 1352 ± 5 kg/m3
mass density ([1]; 323.15 K): 1347 ± 5 kg/m3
mass density ([1]; 328.15 K): 1343 ± 5 kg/m3
mass density ([1]; 333.15 K): 1339 ± 5 kg/m3
mass density ([1]; 338.15 K): 1334 ± 5 kg/m3
mass density ([1]; 343.15 K): 1330 ± 5 kg/m3
mass density ([1]; 348.15 K): 1325 ± 5 kg/m3
mass density ([1]; 353.15 K): 1320 ± 5 kg/m3
mass density ([1]; 358.15 K): 1315 ± 5 kg/m3

CCn1cc[n+](C)c1.O=S(=O)([N-]S(=O)(=O)C(F)(F)F)C(F)(F)F + CCCC[n+]1ccn(C)c1.O=S(=O)([N-]S(=O)(=O)C(F)(F)F)C(F)(F)F
mass density ([2]; 293.15 K): 1483 ± 6 kg/m3
mass density ([2]; 298.15 K): 1479 ± 6 kg/m3
mass density ([2]; 303.15 K): 1474 ± 6 kg/m3
mass density ([2]; 308.15 K): 1469 ± 6 kg/m3
mass density ([2]; 313.15 K): 1464 ± 6 kg/m3
mass density ([2]; 318.15 K): 1459 ± 6 kg/m3
mass density ([2]; 323.15 K): 1454 ± 6 kg/m3
mass density ([2]; 328.15 K): 1449 ± 6 kg/m3
mass density ([2]; 333.15 K): 1445 ± 6 kg/m3
mass density ([2]; 338.15 K): 1440 ± 6 kg/m3
mass density ([2]; 343.15 K): 1435 ± 6 kg/m3
mass density ([2]; 348.15 K): 1430 ± 6 kg/m3
mass density ([2]; 353.15 K): 1425 ± 6 kg/m3
mass density ([2]; 358.15 K): 1421 ± 6 kg/m3

C=CCCCCC [1-heptene] + CCCCCC[n+]1ccn(C)c1.O=S(=O)([N-]S(=O)(=O)C(F)(F)F)C(F)(F)F
activity coefficient ([3]; 303.15 K, Chromatography): 6.46 ± 0.3
activity coefficient ([3]; 303.15 K, dilutor): 6.28 ± 0.31
activity coefficient ([3]; 313.15 K, Chromatography): 6.28 ± 0.29
activity coefficient ([3]; 313.15 K, dilutor): 6.12 ± 0.31
activity coefficient ([3]; 323.15 K, Chromatography): 6.09 ± 0.28
activity coefficient ([3]; 323.15 K, dilutor): 5.96 ± 0.3
activity coefficient ([3]; 333.15 K, Chromatography): 5.96 ± 0.27
activity coefficient ([3]; 333.15 K, dilutor): 5.86 ± 0.29

CCCC[N+]1(C)CCCC1.O=S(=O)([N-]S(=O)(=O)C(F)(F)F)C(F)(F)F
mass density ([1]; 298.15 K): 1394 ± 5 kg/m3
mass density ([1]; 303.15 K): 1390 ± 5 kg/m3
mass density ([1]; 308.15 K): 1388 ± 5 kg/m3
mass density ([1]; 313.15 K): 1386 ± 5 kg/m3
mass density ([1]; 318.15 K): 1383 ± 5 kg/m3
mass density ([1]; 323.15 K): 1381 ± 5 kg/m3
mass density ([1]; 328.15 K): 1379 ± 5 kg/m3
mass density ([1]; 333.15 K): 1377 ± 5 kg/m3
mass density ([1]; 338.15 K): 1373 ± 5 kg/m3
mass density ([1]; 343.15 K): 1370 ± 5 kg/m3
mass density ([1]; 348.15 K): 1366 ± 5 kg/m3

Cc1ccc(C)cc1 [1,4-dimethylbenzene] + CCCCCCCCn1cc[n+](C)c1.O=S(=O)([N-]S(=O)(=O)C(F)(F)F)C(F)(F)F
activity coefficient ([3]; 303.15 K, Chromatography): 1.11 ± 0.03
activity coefficient ([3]; 313.15 K, Chromatography): 1.13 ± 0.03
activity coefficient ([3]; 323.15 K, Chromatography): 1.16 ± 0.04
activity coefficient ([3]; 333.15 K, Chromatography): 1.16 ± 0.04

Reference: the NIST ThermoML archive (doi:10.1016/j.jct.2005.04.010)
